Measured values as given in article PMC5564600 (Oncotarget, 2017).

Key:
Assay in all cases: biochemical
Format in all cases: binding
[1] = biological target: T1, panel of 442 kinases (Homo sapiens, UniProt P07948); conditions: kinase LYN; for remaining activity at 1 µM: read-out: % of control at 1 µM
T1 construct: purchased Ambit Biosciences (scanMAXX KINOMEscan)

[2] = biological target: T2, panel of 442 kinases (Homo sapiens, UniProt P24941); conditions: CDK2; for remaining activity at 1 µM: read-out: % of control at 1 µM
T2 construct: purchased Ambit Biosciences (scanMAXX KINOMEscan)

[3] = biological target: T3, panel of 442 kinases (Homo sapiens, UniProt P06213); conditions: kinase INSR; for remaining activity at 1 µM: read-out: % of control at 1 µM
T3 construct: purchased Ambit Biosciences (scanMAXX KINOMEscan)

[4] = biological target: T4, panel of 442 kinases (Homo sapiens, UniProt Q9BX84); conditions: kinase TRPM6; for remaining activity at 1 µM: read-out: TRPM6 (% of control at 1 µM)
T4 construct: purchased Ambit Biosciences (scanMAXX KINOMEscan)

[5] = biological target: T5, panel of 442 kinases (Homo sapiens, UniProt Q9H4B4); conditions: kinase PLK3; for remaining activity at 1 µM: read-out: PLK3 (% of control at 1 µM)
T5 construct: purchased Ambit Biosciences (scanMAXX KINOMEscan)

[6] = biological target: T6, panel of 442 kinases (Homo sapiens, UniProt O96013); conditions: kinase PAK4; for remaining activity at 1 µM: read-out: % of control at 1 µM
T6 construct: purchased Ambit Biosciences (scanMAXX KINOMEscan)

[7] = biological target: T7, panel of 442 kinases (Homo sapiens, UniProt P07949); conditions: kinase RET; for remaining activity at 1 µM: read-out: RET (% of control at 1 µM)
T7 construct: purchased Ambit Biosciences (scanMAXX KINOMEscan)

[8] = biological target: T8, panel of 442 kinases (Homo sapiens, UniProt Q8WXR4); conditions: kinase MYO3B; for remaining activity at 1 µM: read-out: % of control at 1 µM
T8 construct: purchased Ambit Biosciences (scanMAXX KINOMEscan)
T8 sequence (Q8WXR4 1-1341): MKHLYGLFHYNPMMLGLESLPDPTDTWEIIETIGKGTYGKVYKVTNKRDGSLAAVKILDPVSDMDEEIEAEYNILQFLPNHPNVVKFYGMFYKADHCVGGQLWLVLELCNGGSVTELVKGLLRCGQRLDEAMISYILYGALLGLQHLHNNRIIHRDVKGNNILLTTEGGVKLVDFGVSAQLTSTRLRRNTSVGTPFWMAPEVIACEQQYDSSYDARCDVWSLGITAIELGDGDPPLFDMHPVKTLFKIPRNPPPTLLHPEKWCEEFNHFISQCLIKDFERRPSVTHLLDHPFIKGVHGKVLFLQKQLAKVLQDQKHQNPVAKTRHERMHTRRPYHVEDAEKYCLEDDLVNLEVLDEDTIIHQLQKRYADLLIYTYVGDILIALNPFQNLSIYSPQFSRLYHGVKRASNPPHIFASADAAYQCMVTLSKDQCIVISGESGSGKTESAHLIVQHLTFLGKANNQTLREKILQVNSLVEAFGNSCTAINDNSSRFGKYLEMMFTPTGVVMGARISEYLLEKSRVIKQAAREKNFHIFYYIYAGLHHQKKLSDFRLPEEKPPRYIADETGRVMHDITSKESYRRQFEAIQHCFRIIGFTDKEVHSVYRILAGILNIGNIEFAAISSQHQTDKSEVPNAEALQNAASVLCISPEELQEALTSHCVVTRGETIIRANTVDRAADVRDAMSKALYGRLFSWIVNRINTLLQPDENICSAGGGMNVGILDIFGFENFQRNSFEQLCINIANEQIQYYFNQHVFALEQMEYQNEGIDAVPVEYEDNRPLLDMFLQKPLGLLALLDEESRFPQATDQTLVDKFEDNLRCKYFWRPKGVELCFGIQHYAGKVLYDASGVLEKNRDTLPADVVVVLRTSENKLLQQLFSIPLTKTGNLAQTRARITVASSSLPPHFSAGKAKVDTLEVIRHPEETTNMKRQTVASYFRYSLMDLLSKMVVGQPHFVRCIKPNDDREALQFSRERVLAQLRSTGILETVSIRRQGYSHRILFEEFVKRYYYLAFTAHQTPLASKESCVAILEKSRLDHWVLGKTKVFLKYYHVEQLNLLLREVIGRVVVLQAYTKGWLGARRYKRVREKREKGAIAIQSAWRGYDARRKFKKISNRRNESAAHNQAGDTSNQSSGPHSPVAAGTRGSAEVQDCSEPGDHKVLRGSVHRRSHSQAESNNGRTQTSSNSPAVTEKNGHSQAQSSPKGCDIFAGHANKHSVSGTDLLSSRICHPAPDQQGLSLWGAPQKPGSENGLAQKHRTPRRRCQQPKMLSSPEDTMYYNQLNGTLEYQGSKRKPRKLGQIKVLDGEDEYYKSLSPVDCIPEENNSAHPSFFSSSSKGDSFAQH

[9] = biological target: T9, panel of 442 kinases (Homo sapiens, UniProt P22607, G697C); conditions: FGFR3(G697C); for remaining activity at 1 µM: read-out: % of control at 1 µM
T9 construct: purchased Ambit Biosciences (scanMAXX KINOMEscan)

[10] = biological target: T10, panel of 442 kinases (Homo sapiens, UniProt Q9NYL2); conditions: kinase ZAK; for remaining activity at 1 µM: read-out: ZAK (% of control at 1 µM)
T10 construct: purchased Ambit Biosciences (scanMAXX KINOMEscan)

[11] = biological target: T11, panel of 442 kinases (Homo sapiens, UniProt P00533, G719S); conditions: EGFR(G719S); for remaining activity at 1 µM: read-out: % of control at 1 µM
T11 construct: purchased Ambit Biosciences (scanMAXX KINOMEscan)

[12] = 10 µM, read-out: % of control at 10 µM

T6 sequence (O96013 whole entry): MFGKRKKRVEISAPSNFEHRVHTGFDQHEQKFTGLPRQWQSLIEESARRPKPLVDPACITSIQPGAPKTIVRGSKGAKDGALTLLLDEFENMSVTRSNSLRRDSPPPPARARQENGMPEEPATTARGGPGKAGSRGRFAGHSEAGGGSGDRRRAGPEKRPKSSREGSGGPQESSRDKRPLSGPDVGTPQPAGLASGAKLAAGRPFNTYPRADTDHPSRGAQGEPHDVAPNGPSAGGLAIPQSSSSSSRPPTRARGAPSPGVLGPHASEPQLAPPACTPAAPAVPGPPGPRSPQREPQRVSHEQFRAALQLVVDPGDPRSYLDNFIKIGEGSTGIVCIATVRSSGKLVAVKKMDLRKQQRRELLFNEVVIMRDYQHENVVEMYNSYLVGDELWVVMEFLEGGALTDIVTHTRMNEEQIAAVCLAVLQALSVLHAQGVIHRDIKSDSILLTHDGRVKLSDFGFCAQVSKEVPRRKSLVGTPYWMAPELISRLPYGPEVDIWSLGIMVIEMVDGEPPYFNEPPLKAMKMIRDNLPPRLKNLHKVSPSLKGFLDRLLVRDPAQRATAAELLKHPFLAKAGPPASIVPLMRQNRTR
T1 sequence (P07948 whole entry): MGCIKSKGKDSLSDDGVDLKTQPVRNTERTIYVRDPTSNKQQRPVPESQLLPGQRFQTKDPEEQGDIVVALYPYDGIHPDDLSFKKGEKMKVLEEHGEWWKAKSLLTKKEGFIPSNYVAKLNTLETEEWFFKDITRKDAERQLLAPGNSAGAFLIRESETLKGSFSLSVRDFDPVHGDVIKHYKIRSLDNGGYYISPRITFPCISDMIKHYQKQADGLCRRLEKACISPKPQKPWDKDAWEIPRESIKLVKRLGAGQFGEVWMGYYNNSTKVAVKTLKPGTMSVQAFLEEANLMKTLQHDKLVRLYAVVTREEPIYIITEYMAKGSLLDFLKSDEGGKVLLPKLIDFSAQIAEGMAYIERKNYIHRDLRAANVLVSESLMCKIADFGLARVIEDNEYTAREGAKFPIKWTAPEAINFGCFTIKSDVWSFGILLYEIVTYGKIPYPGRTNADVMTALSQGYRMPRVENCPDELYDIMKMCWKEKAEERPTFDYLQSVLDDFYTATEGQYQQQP
T3 sequence (P06213 28-1382): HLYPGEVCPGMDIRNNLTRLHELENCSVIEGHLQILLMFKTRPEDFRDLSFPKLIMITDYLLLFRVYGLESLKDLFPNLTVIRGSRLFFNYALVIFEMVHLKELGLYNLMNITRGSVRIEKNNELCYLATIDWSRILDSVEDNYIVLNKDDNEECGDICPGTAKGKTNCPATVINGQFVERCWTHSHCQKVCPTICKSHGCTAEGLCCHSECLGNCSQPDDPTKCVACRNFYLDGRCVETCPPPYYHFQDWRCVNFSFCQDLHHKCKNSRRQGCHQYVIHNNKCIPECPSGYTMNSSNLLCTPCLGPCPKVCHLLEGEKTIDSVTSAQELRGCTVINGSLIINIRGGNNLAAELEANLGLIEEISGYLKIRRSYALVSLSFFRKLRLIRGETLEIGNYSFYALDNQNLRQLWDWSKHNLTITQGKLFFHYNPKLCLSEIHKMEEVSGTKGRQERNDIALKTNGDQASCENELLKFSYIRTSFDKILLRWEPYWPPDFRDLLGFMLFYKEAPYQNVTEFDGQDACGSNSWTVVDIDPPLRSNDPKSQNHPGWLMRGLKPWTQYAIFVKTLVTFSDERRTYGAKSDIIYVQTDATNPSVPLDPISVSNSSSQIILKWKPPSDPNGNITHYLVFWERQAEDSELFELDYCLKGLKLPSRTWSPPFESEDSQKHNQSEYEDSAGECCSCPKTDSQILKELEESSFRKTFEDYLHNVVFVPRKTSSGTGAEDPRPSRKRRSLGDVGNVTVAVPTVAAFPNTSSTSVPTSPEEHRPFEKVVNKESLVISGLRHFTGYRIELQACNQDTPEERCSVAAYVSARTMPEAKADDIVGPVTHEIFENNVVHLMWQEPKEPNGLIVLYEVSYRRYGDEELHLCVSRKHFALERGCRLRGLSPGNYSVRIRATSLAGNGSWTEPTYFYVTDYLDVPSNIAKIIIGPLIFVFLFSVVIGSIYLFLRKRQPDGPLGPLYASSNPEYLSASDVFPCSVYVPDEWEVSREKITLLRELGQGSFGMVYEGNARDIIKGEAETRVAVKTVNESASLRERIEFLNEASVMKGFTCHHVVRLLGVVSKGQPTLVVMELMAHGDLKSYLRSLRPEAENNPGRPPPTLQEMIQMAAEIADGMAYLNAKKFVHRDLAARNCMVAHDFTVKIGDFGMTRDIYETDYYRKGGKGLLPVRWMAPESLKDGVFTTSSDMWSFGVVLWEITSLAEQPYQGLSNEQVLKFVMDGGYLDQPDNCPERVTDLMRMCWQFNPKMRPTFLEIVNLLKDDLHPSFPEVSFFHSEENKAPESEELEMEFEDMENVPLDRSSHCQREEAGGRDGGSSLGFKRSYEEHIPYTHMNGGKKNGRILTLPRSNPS
T4 sequence (Q9BX84 whole entry): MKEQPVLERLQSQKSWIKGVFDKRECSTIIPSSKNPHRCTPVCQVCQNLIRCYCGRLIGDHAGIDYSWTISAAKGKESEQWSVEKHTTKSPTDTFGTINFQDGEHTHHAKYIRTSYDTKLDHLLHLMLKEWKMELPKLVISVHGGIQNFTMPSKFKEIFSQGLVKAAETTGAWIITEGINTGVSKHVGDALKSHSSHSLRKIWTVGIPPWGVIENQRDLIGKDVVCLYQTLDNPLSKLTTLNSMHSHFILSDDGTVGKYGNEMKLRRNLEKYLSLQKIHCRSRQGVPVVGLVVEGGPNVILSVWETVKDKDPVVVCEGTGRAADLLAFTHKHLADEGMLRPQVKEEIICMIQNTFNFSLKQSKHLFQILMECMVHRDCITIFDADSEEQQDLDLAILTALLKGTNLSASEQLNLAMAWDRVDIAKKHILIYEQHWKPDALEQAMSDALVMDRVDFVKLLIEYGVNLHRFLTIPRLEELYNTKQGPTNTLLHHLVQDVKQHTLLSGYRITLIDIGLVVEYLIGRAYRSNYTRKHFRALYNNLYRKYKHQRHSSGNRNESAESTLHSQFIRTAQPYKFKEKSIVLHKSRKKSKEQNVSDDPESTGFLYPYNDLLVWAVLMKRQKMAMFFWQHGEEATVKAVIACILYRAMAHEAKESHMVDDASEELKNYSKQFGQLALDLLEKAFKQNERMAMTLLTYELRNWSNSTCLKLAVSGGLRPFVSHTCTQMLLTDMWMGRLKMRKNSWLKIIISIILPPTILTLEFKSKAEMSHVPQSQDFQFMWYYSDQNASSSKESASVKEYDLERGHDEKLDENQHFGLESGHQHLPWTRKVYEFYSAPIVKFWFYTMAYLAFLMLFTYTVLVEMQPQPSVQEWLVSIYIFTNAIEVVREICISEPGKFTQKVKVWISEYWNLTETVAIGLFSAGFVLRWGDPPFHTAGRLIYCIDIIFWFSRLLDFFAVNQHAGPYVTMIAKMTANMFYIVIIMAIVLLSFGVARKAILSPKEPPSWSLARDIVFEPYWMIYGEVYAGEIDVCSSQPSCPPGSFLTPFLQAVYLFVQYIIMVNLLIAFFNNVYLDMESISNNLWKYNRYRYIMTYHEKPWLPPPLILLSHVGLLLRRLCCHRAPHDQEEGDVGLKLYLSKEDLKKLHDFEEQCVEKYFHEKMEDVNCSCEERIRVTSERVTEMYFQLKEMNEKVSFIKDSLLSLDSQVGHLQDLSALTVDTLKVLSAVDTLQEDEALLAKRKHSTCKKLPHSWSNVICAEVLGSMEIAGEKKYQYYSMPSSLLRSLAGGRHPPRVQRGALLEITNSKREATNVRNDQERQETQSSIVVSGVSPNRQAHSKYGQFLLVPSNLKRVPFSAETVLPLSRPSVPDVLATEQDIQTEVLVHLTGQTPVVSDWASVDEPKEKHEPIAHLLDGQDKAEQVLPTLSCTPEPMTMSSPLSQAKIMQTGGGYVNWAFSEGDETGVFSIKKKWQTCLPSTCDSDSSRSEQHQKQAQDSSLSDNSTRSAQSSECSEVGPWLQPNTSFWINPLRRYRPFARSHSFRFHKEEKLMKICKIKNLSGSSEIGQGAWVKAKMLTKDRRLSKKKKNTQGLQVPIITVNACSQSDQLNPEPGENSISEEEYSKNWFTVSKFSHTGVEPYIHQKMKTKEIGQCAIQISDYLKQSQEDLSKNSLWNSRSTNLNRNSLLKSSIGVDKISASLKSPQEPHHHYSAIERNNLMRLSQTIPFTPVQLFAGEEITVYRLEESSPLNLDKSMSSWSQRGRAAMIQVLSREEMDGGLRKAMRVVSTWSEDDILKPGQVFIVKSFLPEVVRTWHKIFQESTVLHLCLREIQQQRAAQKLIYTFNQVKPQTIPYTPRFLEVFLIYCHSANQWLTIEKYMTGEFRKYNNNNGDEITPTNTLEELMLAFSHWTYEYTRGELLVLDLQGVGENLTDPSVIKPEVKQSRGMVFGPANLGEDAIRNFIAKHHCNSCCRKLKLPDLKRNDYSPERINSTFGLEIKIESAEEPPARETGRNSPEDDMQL
T5 sequence (Q9H4B4 whole entry): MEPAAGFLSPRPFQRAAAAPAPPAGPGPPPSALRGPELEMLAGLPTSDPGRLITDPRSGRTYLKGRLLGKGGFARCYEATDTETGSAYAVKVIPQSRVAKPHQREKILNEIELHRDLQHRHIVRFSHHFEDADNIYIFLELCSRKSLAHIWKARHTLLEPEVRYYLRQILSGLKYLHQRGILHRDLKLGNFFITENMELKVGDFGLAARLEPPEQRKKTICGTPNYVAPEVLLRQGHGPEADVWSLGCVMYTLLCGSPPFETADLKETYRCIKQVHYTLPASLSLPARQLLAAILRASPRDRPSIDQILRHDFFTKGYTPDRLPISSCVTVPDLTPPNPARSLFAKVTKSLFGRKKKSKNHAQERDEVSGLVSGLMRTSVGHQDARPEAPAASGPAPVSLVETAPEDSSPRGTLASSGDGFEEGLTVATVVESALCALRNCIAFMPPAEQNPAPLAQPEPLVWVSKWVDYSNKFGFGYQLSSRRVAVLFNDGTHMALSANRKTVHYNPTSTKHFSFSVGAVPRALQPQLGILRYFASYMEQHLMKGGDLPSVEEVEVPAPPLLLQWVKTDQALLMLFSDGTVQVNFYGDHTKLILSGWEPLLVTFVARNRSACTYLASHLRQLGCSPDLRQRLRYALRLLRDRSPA

| Structure (SMILES) | remaining activity at 1 µM [1] | remaining activity at 1 µM [2] | remaining activity at 1 µM [3] | remaining activity at 1 µM [4] | remaining activity at 1 µM [5] | remaining activity at 1 µM [6] | remaining activity at 1 µM [7] | remaining activity at 1 µM [8] | remaining activity at 1 µM [9] | remaining activity at 1 µM [10] | remaining activity at 1 µM [11] | further results |
| --- | --- | --- | --- | --- | --- | --- | --- | --- | --- | --- | --- | --- |
| Nc1cc(C(F)(F)F)c(-c2cc(N3CCOCC3)nc(N3CCOCC3)n2)cn1 [Buparlisib] | 84% | 84% | 91% | 76% | 97% | 93% | 97% | 51% | 86% | 85% | 100% | remaining activity at 10 µM [1, 12]: 100%; remaining activity at 10 µM [2, 12]: 100%; remaining activity at 10 µM [3, 12]: 77%; remaining activity at 10 µM ([4]; 10 µM, read-out: TRPM6 (% of control at 10 µM)): 75%; remaining activity at 10 µM ([5]; 10 µM, read-out: PLK3 (% of control at 10 µM)): 100%; remaining activity at 10 µM [6, 12]: 100%; remaining activity at 10 µM ([7]; 10 µM, read-out: RET (% of control at 10 µM)): 100%; remaining activity at 10 µM [8, 12]: 73%; remaining activity at 10 µM [9, 12]: 100%; remaining activity at 10 µM ([10]; 10 µM, read-out: ZAK (% of control at 10 µM)): 90%; remaining activity at 10 µM [11, 12]: 95% |
| Cn1c(=O)n(-c2ccc(C(C)(C)C#N)cc2)c2c3cc(-c4cnc5ccccc5c4)ccc3ncc21 [Dactolisib, 2-methyl-2-[4-(3-methyl-2-oxo-8-quinolin-3-yl-2,3-dihydroimidazo[4,5-c]quinolin-1-yl)-phenyl] propionitrile] | 87% | 78% | 74% | 62% | 88% | 100% | 100% | 81% | 90% | 55% | 99% |  |
| COc1ncc(-c2ccc3nccc(-c4ccnnc4)c3c2)cc1NS(=O)(=O)c1ccc(F)cc1F [Omipalisib] | 100% | 100% | 92% | 100% | 82% | 95% | 94% | 91% | 68% | 81% | 78% |  |
| FC(F)c1nc2ccccc2n1-c1nc(N2CCOCC2)nc(N2CCOCC2)n1 [ZSTK474, 2-(difluoromethyl)-1-[4,6-di(4-morpholinyl)-1,3,5-triazin-2-yl]-1H-benzimidazole] | 100% | 74% | 94% | 74% | 83% | 96% | 100% | 64% | 100% | 92% | 100% |  |
